The target in one assay is DNMT1 (Homo sapiens, UniProt P26358). Description: DNMT1 biochemical activity, breaklight assay and/or SPA assay. The settings on record: binned activity in either the breaklight or the SPA assay; for IC50: read-out: DNMT1 BioChemical (pIC50 category) (converted). The method, then: DNMT1 breaklight in vitro assays were conducted in a total volume of 50 μl in a standard 384 well format, using black non-binding surface microplates (Corning 3575). […] Negative control wells used 5 μl of DNMT1 and 5 μl of oligonucleotide but 0 μM SAM. All reagents were made up in 1× assay buffer (20 mM Tris pH 6.8, 25 mM NaCl, 0.5 mM MgCl2, 0.01% Triton X100 and 1 mM DTT). The reaction was incubated at 26° C. for 45 min and then stopped with the addition of 40 μl detection reagent. Detection reagent, made up in 1× Gla assay buffer (20 mM Tris pH 8.0, 80 mM NaCl, 0.75 mM MgCl2, 0.01% Triton X100 and 1 mM DTT) has a final concentration of 100 μM SAH (Sigma #A9384) and 0.0008 units/μl Gla1 restriction endonuclease (Sibenzyme #E494). Following addition of the detection reagent the plate was incubated in the dark at room temperature for 5 hr. Fluorescence intensity was then measured on the PHERAstar FS (BMG Labtech) at Ex 485 nm and Em 520 nm, with a gain of 400 and an integration time of 100 ms.
Chain of DNMT1 (P26358 whole entry, looked up): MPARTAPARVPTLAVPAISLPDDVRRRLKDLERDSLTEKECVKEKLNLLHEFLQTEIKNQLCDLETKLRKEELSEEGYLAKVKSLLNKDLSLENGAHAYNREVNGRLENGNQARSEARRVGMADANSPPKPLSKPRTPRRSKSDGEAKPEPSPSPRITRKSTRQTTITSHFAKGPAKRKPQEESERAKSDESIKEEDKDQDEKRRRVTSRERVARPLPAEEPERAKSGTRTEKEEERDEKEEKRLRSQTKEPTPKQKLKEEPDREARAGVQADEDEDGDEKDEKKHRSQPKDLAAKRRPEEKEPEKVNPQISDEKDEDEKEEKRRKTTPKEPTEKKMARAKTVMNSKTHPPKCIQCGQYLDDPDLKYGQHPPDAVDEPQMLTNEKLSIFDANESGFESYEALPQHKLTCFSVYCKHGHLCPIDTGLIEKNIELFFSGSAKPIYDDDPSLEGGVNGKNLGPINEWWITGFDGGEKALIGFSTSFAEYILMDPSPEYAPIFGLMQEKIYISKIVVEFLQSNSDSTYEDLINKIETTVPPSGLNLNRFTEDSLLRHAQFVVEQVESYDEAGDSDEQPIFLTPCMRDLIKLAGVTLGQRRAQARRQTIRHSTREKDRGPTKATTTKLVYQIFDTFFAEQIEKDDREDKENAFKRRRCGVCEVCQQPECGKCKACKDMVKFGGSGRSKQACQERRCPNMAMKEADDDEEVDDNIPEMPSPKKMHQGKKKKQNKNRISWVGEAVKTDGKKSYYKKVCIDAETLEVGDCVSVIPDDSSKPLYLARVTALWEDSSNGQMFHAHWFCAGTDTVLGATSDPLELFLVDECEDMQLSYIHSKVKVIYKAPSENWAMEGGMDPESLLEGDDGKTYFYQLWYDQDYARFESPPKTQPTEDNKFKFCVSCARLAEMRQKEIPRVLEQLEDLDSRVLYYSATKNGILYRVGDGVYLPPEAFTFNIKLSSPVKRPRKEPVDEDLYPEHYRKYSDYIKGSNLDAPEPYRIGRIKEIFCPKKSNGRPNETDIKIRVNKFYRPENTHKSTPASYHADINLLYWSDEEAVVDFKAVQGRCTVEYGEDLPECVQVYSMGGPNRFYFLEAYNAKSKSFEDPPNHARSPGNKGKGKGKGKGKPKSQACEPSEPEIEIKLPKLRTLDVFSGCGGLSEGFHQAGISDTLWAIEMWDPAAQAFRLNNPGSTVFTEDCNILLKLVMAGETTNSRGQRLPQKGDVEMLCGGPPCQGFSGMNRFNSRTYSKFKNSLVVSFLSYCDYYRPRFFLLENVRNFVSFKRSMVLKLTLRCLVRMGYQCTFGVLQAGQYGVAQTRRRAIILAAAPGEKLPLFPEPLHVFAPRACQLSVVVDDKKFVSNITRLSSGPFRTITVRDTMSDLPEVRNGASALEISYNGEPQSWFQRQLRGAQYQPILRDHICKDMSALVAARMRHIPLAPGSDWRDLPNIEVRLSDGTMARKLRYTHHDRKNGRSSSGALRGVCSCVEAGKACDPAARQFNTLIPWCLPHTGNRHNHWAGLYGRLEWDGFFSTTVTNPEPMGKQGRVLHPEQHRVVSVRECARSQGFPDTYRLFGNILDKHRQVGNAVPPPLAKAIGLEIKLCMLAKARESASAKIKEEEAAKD
Biochemical activity of DNMT1 analyzed using SPA technology. Plates (Griener 784075) were pre-stamped with 100 nL/well of compound (11-point, 3-fold serial dilution). […] Low control wells contained 5 μL of buffer instead of enzyme. Following a 40 minute incubation, the reaction was quenched upon the addition of 10 μL of stop mixture containing 1 mM SAM (Sigma A7007) and 2 mg/mL PEI beads (Perkin Elmer RPNQ0098). Plates were sealed, centrifuged for 1 min and then read on a Viewlux (Perkin Elmer) using the 613 nm emission filter/300 s read time following a 30 minute dark adapt. Assay conditions prior to quench consisted of 40 nM DNMT1 (601-1600, produced internally), 100 nM 3H-SAM (American Radiolabeled Chemicals ART 0288), 900 nM SAM (New England BioLabs B9003S) and 200 nM hemi methylated DNA oligonucleotide (synthesized at Integrated DNA Technologies, 5′-[…]-3′) in 50 mM HEPES (pH 8.0), 2 mM MgCl2, 1 mM DTT, 0.01% NP-40 and 0.01% BSA.
Comments • 1. […] Where a field is empty, the compound was not tested in that assay.

In assay [1] the test system is erythroid progenitor cells (EPCs). The assay is described as follows: Fetal hemoglobin (HbF) ELISA in day 7 erythroid progenitor cells. The settings on record: Homo sapiens, Erythroid progenitor cell, HbF ELISA, day 7 EPCs, 5 days; read-out: EPC ELISA (pEC50 category) (converted). It is filed as cell-based, human. The method, then:
Day 7 EPCs were cultured in duplicate plates with serially diluted Compound A for 5 days at 37° C. Wells were then analyzed for either induction of fetal hemoglobin (HbF,HbF ELISA) or cell growth (Cell Titer-Glo). In both cases, signal was normalized to vehicle-control treated cells.
Culture, Expansion, and Characterization of Day 7 Erythroid Progenitor Cells (EPC)s
All donors provided written informed consent for use of their samples, and the collection and use of the samples received institutional review board approval. All cryopreserved human bone marrow CD34+ cells used here were obtained from AlICells (Emeryville, Calif.) and were generally from different donors. The CD34+ cells were cultured to generate EPCs at day 7. Briefly, 1 million cells were cultured in 5% CO2, 5% O2 at 37° C. in H3000 Stemspan media (StemCell Technologies Vancouver, BC, Canada) supplemented with 2 mM L-glutamine, 40 μg/mL human low-density lipoproteins (StemCell Technologies), 10 ng/mL recombinant human (rh) interleukin IL-3 (R&D Systems, Minneapolis, Minn.), 100 ng/mL rh stem cell factor (R&D Systems), and 0.5 U/mL rh erythropoietin (Invitrogen, Grand Island, N.Y.). Cells were split and refed on day 4 with complete culture media described above and harvested on day 7 for evaluation of erythroid marker expression and assessment of γ-globin induction. Day 7 EPCs were then frozen in liquid nitrogen at 5 to 10 million cells/mL in 95% fetal bovine serum (FBS; Invitrogen) with 5% DMSO for subsequent use.
At the time of compound treatment, frozen day 7 EPCs prepared as described above were thawed, washed once and re-suspended in complete culture media as described above with the exception of an increase of rhEPO to 3 U/mL. Cells were counted and diluted to […] for plating into assay plates. Cells were then dispensed, at 30 μL per well with Multidrop™ Combi Reagent Dispenser (Thermo Scientific), into 384-well cell culture plates into which test compounds were pre-dispensed at 100 nL/well. Black Clear Bottom (Greiner Bio-One; 781090) and White (Greiner Bio-One; 781080) plates were used for ELISA and Cell Titer-Glo assays, respectively. The final cell density in the assays is 1,000 cells per well, with final compound concentrations between 33 nM (highest) and […] (lowest) for the 22-points serial dilution.
Fetal Hemoglobin (HbF) ELISA
Coating anti-HbF Ab (Bethyl Lab; cat. A80-136A) was diluted by 100-fold in the coating buffer (0.05 M carbonate-bicarbonate, pH 9.6), and then 20 μL/well was added to a 384-well MaxiSorp ELISA plate (Thermo Fisher; cat. 464718). After 1 hour incubation at room temperature, the plates were washed twice with ELISA washing buffer (50 mM Tris, 0.05% Tween 20, pH 8.0) with an EL406 plate washer (BioTek, Winooski, Vt.). Then, 40 μL/well of blocking buffer consisting of 50 mM Tris and 1% BSA (pH 8.0) was added to the plate and stored at 4° C. with cover sheet overnight, or until time of the assay. The coated ELISA plates were stable for up to 30 days at 4° C. On the day of assay, the plates were washed twice with ELISA washing buffer prior to addition of cell lysate.
After 5 days at 37° C. with 5% CO2 cell culture plates for ELISA assay were put into −80° C. freezer for a minimum of 2 hours. After thawing at room temperature, 30 μL of cell lysis buffer (Invitrogen; cat. FNN0011, supplemented with 1× protease inhibitor) was added to each well and the resulting cell lysate was mixed eight times with a Cybi-Well (Jena, Germany) pipettor. Following the mixing procedure, 20 μL/well of lysate was transferred to the coated ELISA plates described above followed by a 1 hour incubation at room temperature. The ELISA assay plates were washed three times with ELISA wash buffer. 20 μL per well of 1:75,000 to 100,000 diluted horseradish peroxidase (HRP) conjugate detection antiHbF Ab (Bethyl Labs; cat. A80-136P, diluted in 50 mM Tris [pH 8.0], 1% BSA, 0.05% Tween-20) was then added. […]

Structures can show the parent of a compound that is named as a salt. A value given as a limit tells only on which side of the number the result lay.

As to `CCc1c(C#N)c(SCc2ccc3c(c2)C(OC)(OC)C(=O)N3)nc(N2CCCN(C)CC2)c1C#N` [Example 347, 2-(((3,3-Dimethoxy-2-oxoindolin-5-yl)methyl)thio)-4-ethyl-6-(4-methyl-1,4-diazepan-1-yl)pyridine-3,5-dicarbonitrile], at DNMT1, the IC50 was 316 to 1000 nM. For the same compound, the EC50 in assay [1] was 1000 to 31600 nM.

As for `CCc1c(C#N)c(SC(C(N)=O)c2ccccc2)nc(N(C)CC(=O)NCC2(CO)CC2)c1C#N` (stereo not drawn) [Example 673, 2-((6-((2-amino-2-oxo-1-phenylethyl)thio)-3,5-dicyano-4-ethylpyridin-2-yl)(methyl)amino)-N-((1-(hydroxymethyl)cyclopropyl)methyl)acetamide], the “DNMT1 BioChemical (pIC50 category)” value on DNMT1 is “D (Category D: ≥6.5)”. Moreover, the EC50 in assay [1] was less than 316 nM.

`CCc1c(C#N)c(SC(C(N)=O)c2ccccc2)nc(N2CCC(NC(=O)C3(N)COC3)CC2)c1C#N` (stereo not drawn) [Example 186, 3-Amino-N-(1-(6-((2-amino-2-oxo-1-phenylethyl)thio)-3,5-dicyano-4-ethylpyridin-2-yl)piperidin-4-yl)oxetane-3-carboxamide]: the “DNMT1 BioChemical (pIC50 category)” value at DNMT1 is recorded as “D (Category D: ≥6.5)”. Besides, the EC50 in assay [1] was 1000 to 31600 nM.

On to `CCc1c(C#N)c(SC(C(N)=O)c2ccccc2)nc(N(C)Cc2cnc[nH]2)c1C#N` (stereo not drawn) [Example 365], for which, on DNMT1, the IC50 was 316 to 1000 nM. In assay [1], the EC50 is 1000 to 31600 nM.

For `CCc1c(C#N)c(SC(C(N)=O)c2ccccc2)nc(N2CCC(N3CCC[C@@H]3C)CC2)c1C#N` (stereo partly drawn) [Example 453, 2-((3,5-dicyano-4-ethyl-6-(4-((S)-2-methylpyrrolidin-1-yl)piperidin-1-yl)pyridin-2-yl)thio)-2-phenylacetamide], the “DNMT1 BioChemical (pIC50 category)” value on DNMT1 is “D (Category D: ≥6.5)”. For the same compound, the EC50 in assay [1] was less than 316 nM.

Take `CCc1c(C#N)c(SC(C(N)=O)c2ccccc2)nc(N2CCC[C@@H](CN)C2)c1C#N` (stereo partly drawn) [Example 576, 2-((6-((S)-3-(aminomethyl)piperidin-1-yl)-3,5-dicyano-4-ethylpyridin-2-yl)thio)-2-phenylacetamide]: the IC50 on DNMT1 was less than 316 nM. For the same compound, the EC50 in assay [1] was less than 316 nM.

For `CCc1c(C#N)c(SCc2ccc(NS(C)(=O)=O)cc2)nc(N2CCCN(C)CC2)c1C#N` [Example 299, N-(4-(((3,5-Dicyano-4-ethyl-6-(4-methyl-1,4-diazepan-1-yl)pyridin-2-yl)thio)methyl)phenyl) methanesulfonamide], the “DNMT1 BioChemical (pIC50 category)” value at DNMT1 was “D (Category D: ≥6.5)”. Further, the EC50 in assay [1] is 316 to 1000 nM.

For the compound `CCCOc1c(C#N)c(SC(C(N)=O)c2ccccc2)nc(N2CCCN(CCO)CC2)c1C#N` (stereo not drawn) [Example 213, 2-((3,5-Dicyano-6-(4-(2-hydroxyethyl)-1,4-diazepan-1-yl)-4-propoxypyridin-2-yl)thio)-2-phenylacetamide], on DNMT1, the IC50 is 316 to 1000 nM. The EC50 in assay [1] was 1000 to 31600 nM.

Consider `CCc1c(C#N)c(SC(C(N)=O)c2ccccc2)nc(N2CCC(CN3CCN(C)CC3)CC2)c1C#N` (stereo not drawn) [Example 469, 2-((3,5-dicyano-4-ethyl-6-(4-((4-methylpiperazin-1-yl)methyl)piperidin-1-yl)pyridin-2-yl)thio)-2-phenylacetamide], for which, at DNMT1, the “DNMT1 BioChemical (pIC50 category)” value is listed as “D (Category D: ≥6.5)”. Also, the EC50 in assay [1] was less than 316 nM.

Turning to `CCc1c(C#N)c(S[C@@H](C(N)=O)c2ccccc2)nc(N2CC[C@@H](N)[C@H](F)C2)c1C#N` [Example 518, (R)-2-((6-((3R,4R)-4-amino-3-fluoropiperidin-1-yl)-3,5-dicyano-4-ethylpyridin-2-yl)thio)-2-phenylacetamide, Trifluoroacetic acid salt], the “DNMT1 BioChemical (pIC50 category)” value on DNMT1 is “D (Category D: ≥6.5)”. The EC50 in assay [1] is less than 316 nM.

On to `CCc1c(C#N)c(SC(C(N)=O)c2ccc(C(N)=O)cc2)nc(N2CCCN(C)CC2)c1C#N` (stereo not drawn) [Example 368, 4-(2-Amino-1-((3,5-dicyano-4-ethyl-6-(4-methyl-1,4-diazepan-1-yl)pyridin-2-yl)thio)-2-oxoethyl)benzamide], for which, on DNMT1, the “DNMT1 BioChemical (pIC50 category)” value is “D (Category D: ≥6.5)”. In addition, the EC50 in assay [1] was more than 31600 nM.

Turning to `CCc1c(C#N)c(SC(C(N)=O)c2ccccc2)nc(N(C)CCN2CC[C@@H](N(C)C)C2)c1C#N` (stereo partly drawn) [Example 516, 2-((3,5-dicyano-6-((2-((R)-3-(dimethylamino)pyrrolidin-1-yl)ethyl)(methyl)amino)-4-ethylpyridin-2-yl)thio)-2-phenylacetamide], on DNMT1, the “DNMT1 BioChemical (pIC50 category)” value is “D (Category D: ≥6.5)”. In assay [1], the EC50 was less than 316 nM.

Regarding `CCc1c(C#N)c(SC(C(N)=O)c2ccc(F)nc2)nc(N2CCCN(C)CC2)c1C#N` (stereo not drawn) [Example 228], on DNMT1, the IC50 is 1000 to 31600 nM. The EC50 in assay [1] was 316 to 1000 nM.

In the case of `CCc1c(C#N)c(S[C@@H](C(N)=O)c2ccccc2)nc(N2CCO[C@H](CNC(=O)CO)C2)c1C#N` [Example 599, N-(((R)-4-(6-(((R)-2-amino-2-oxo-1-phenylethyl)thio)-3,5-dicyano-4-ethylpyridin-2-yl)morpholin-2-yl)methyl)-2-hydroxyacetamide], the “DNMT1 BioChemical (pIC50 category)” value on DNMT1 was “D (Category D: ≥6.5)”. Also, the EC50 in assay [1] is 1000 to 31600 nM.

On to `CCc1c(C#N)c(SC(C(N)=O)c2ccc(C(F)(F)F)cc2)nc(N2CCCN(C)CC2)c1C#N` (stereo not drawn) [Example 233, 2-((3,5-dicyano-4-ethyl-6-(4-methyl-1,4-diazepan-1-yl)pyridin-2-yl)thio)-2-(4-(trifluoromethyl)phenyl)acetamide], for which the IC50 at DNMT1 was 316 to 1000 nM. Besides, in assay [1], the EC50 is less than 316 nM.
